Assay results reported in patent US12622892B2, “Methods for treating endometriosis” (THE TEXAS A&M UNIVERSITY SYSTEM, priority 2020, dated 2026).

What was measured:
IHEECs = assay: Expression of fibrosis markers in IHEECs; format: cell-based, human; settings: 24 hours, vs control, FIG. 6B
Ishikawa cells = assay: Expression of fibrosis markers in Ishikawa cells; format: cell-based; settings: 24 hours, FIG. 6D
NR4A1 = biological target: T1, NR4A1 (Homo sapiens, UniProt P22736); assay: Luciferase assay, NR4A1/NBRE-luc in ESECT-7 cells; format: cell-based; settings: ESECT-7 cells transfected with NR4A1/NBRE-luc; 18 hr treatment; FIG. 2A
T1 construct: expressed in transfected cells; host or cells: ESECT-7 patient-derived endometriotic cells
Procedure: Luciferase assay: ESECT-7 and ESECT-40 cells were plated on 12-well plates in DMEM/F12 supplemented with 2.5% charcoal-stripped FBS. After overnight attachment and growth, various amounts of DNA [i.e., UASx5-Luc (500 ng), GAL4-NR4A1 (50 ng), NBREx3-Luc (800 ng), NurREx3-Luc (800 ng) and Flag-NR4A1 (80 ng)] were co-transfected into each well using Lipofectamine 2000 reagent (Invitrogen, Carlsbad, CA) according to the manufacturer's protocol. After 6 hr of transfection, cells were treated with plating medium (as above) containing either solvent (DMSO) or indicated concentrations of the compound for 18 hr. Cells were then lysed and cell extracts were used for chemiluminescence quantification of luciferase activity. Luciferase activity values were normalized against corresponding protein concentration values determined by Bradford assay. Both GAL4- and Flag-NR4A1 constructs contain full-length NR4A1 coding sequence and all the plasmids used in this study were previously described.

T1 sequence (P22736 whole entry, species assumed): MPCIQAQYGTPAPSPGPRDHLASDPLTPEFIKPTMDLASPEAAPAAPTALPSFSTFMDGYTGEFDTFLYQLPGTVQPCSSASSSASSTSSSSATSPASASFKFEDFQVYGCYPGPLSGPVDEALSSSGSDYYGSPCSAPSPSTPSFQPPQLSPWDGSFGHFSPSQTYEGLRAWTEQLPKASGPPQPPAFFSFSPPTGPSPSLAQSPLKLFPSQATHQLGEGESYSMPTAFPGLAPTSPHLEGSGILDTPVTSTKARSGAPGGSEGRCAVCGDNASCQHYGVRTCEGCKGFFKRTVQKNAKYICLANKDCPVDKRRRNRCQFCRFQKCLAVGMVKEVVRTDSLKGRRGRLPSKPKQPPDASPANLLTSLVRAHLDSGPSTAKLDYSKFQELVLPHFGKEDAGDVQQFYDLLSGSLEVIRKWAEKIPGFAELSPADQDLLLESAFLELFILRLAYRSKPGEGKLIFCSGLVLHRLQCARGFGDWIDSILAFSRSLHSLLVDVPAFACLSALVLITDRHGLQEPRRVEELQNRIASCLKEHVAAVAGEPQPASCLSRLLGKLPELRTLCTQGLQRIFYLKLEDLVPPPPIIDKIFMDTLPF

COc1cc(C(c2c[nH]c3ccccc23)c2c[nH]c3ccccc23)cc(Cl)c1O [DIM-C-pPhOH-3-Cl-5-OCH3]
expression of fibrosis markers (α-SMA, COL1A1, FN, CTGF) (IHEECs): decreased expression of fibrosis markers
expression of fibrosis markers (α-SMA, COL1A1, FN, CTGF) (Ishikawa cells): decreased expression of fibrosis markers
intrinsic transcriptional activity of NR4A1 (NR4A1): inhibited the intrinsic transcriptional activity
